PMC8749431 (mBio, 2022)
Read-outs that look alike come from different tables or passages of the source.

What was measured:
VSV-Gpp = assay type: cell-based, vesicular stomatitis virus
[1] = tested on: SARS-CoV-2 S protein-mediated cell-cell fusion; assay type: cell-based; details: 30, 10, 3, 1 μM; 48 h
[2] = tested on: SARS-CoV-2 S protein-mediated cell-cell fusion; assay type: cell-based; details: 30 μM; 48 h
in vitro [3] = details: African green monkey
in vitro [4] = details: human
in vitro [5] = details: human; remark: listed apart in the source
[6] = molecular target: recombinant SARS-CoV-2 S1-S2 protein (Severe acute respiratory syndrome coronavirus 2, UniProt P0DTC2); assay type: binding
icSARS-CoV-2-mNeonGreen = assay type: cell-based, SARS-CoV-2
SARS-CoV-2-NLuc = test: microbe, parasite or virus in culture; assay type: cell-based; details: Severe acute respiratory syndrome coronavirus 2, Vero C1008
[7] = tested on: wild-type SARS-CoV-2 (2019-nCoV/USA-WA1/2020 strain); assay type: cell-based
[8] = tested on: SARS2-Spp binding to Huh7 cells; assay type: cell-based, SARS-CoV-2
SARS2-Spp = assay type: cell-based, SARS-CoV-2

Q: Which results are given for `CN1CCN([C@@H](c2ccccc2)c2ccc(Cl)cc2)CC1` [(S)-CCZ, (S)-chlorcyclizine]?
A: inhibition of VSV-Gpp entry (VSV-Gpp): no inhibition; inhibition of donor-recipient fusion events (SmBit-LgBit) [1]: inhibited; inhibition of fusion (GFP-RFP colocalization) [2]: showed inhibition; CC50 (Huh7 cells; human): 41.7 µM; CC50 (in vitro [3]): 36.2 µM; CC50 (in vitro [4]): > 100 µM; CC50 (in vitro [5]): > 30 µM

Q: For `O=C(CCCCC1SCC2NC(=O)NC21)NCCOCCOCCN1CCN(C(c2ccc(Cl)cc2)c2ccc(C3(C(F)(F)F)N=N3)cc2)CC1` (centres unmarked) [CCZ-DB], which “binding to recombinant S1-S2 protein by cross-linking” value ([6]; 10 µM probe, UV irradiation, Neutravidin pull-down, anti-S2 blot) is on record?
A: Its value is “direct binding”.

Q: Which “inhibition of donor-recipient fusion events (SmBit-LgBit)” value (from here on “inhibition … (SmBit-LgBit)”) [1] does the source give for `CN(C)C(=O)COC(=O)Cc1ccc(OC(=O)c2ccc(NC(=N)N)cc2)cc1` [Camostat, camostat] here?
A: The value was “did not suppress”.

Q: And the “inhibition of fusion (GFP-RFP colocalization)” value (“inhibition of fusion” for short) [2]?
A: The value was “did not decrease”.

Q: What about the CC50 (in vitro [3]) of the same compound?
A: The CC50 was > 100 µM.

Q: And the CC50 (in vitro [4])?
A: The CC50 was > 100 µM.

Q: What about the CC50 (in vitro [5]) of the same compound?
A: Its CC50 is > 100 µM.

Q: Which “inhibition of VSV-Gpp entry” value (VSV-Gpp) does the source give for `CCN(CC)CCCC(C)Nc1ccnc2cc(Cl)ccc12` (centres unmarked) [Chloroquine, chloroquine] here?
A: Its value is “strong inhibition”.

Q: And the CC50 (Huh7 cells; human)?
A: Its CC50 is 37.5 µM.

Q: And the CC50 (in vitro [3])?
A: Its CC50 is > 100 µM.

Q: And the CC50 (in vitro [4])?
A: Its CC50 is > 100 µM.

Q: What about the CC50 (in vitro [5]) of the same compound?
A: Its CC50 is > 30 µM.

Q: What does the source list for `CCN1CCN(C(c2ccc(Cl)cc2)c2ccc(Cl)cc2)CC1` [Dichlorcyclizine, dichlorcyclizine]?
A: inhibition of VSV-Gpp entry (VSV-Gpp): no inhibition; EC50 (icSARS-CoV-2-mNeonGreen): single-digit micromolar range; EC50 (SARS-CoV-2-NLuc): 4.99 µM; suppression of viral RNA levels [7]: up to 2 log; effect on viral binding to cells [8]: little or no effect; inhibition when present at early entry time points (SARS2-Spp): potent inhibition; inhibition when present during binding (SARS2-Spp): minimal inhibition; inhibition of donor-recipient fusion events (SmBit-LgBit) [1]: potent inhibition; inhibition of fusion (GFP-RFP colocalization) [2]: strong inhibition; competition of probe cross-linking to the spike protein ([6]; 30-fold excess over CCZ-DB): could outcompete; CC50 (in vitro [3]): > 100 µM; CC50 (in vitro [4]): > 100 µM

Q: With `CCOC(=O)[C@H]1O[C@@H]1C(=O)N[C@@H](CC(C)C)C(=O)NCCC(C)C` [E-64d] as the compound, how does the “effect on viral binding to cells” value [8] read?
A: Its value is “little or no effect”.

Q: What about the “inhibition when present at early entry time points” value (SARS2-Spp) of the same compound?
A: The value was “displayed inhibition”.

Q: What about the “inhibition when present at middle entry time point” value (SARS2-Spp) of the same compound?
A: Its value is “displayed inhibition”.

Q: What about the “inhibition when present during binding” value (SARS2-Spp) of the same compound?
A: Its value is “displayed inhibition”.

Q: What about the “inhibition … (SmBit-LgBit)” value [1] of the same compound?
A: The value was “did not suppress”.

Q: And the “inhibition of fusion” value [2]?
A: Its value is “did not decrease”.

Q: What about the CC50 (MA104 cells) of the same compound?
A: The CC50 was > 100 µM.

Q: And the CC50 (293ACE2 cells)?
A: The CC50 was > 100 µM.

Q: And the CC50 (Huh7 cells)?
A: Its CC50 is > 100 µM.

Q: Which “inhibition of VSV-Gpp entry” value (VSV-Gpp) does the source give for `Cc1cc(-c2nc(CN3CCC(C(=O)NCCCN4C[C@H](C)C[C@H](C)C4)CC3)co2)ccc1F` [Fluoxazolevir, fluoxazolevir] here?
A: The value was “minimal”.

Q: What about the EC50 (icSARS-CoV-2-mNeonGreen) of the same compound?
A: Its EC50 is “single-digit micromolar range”.

Q: And the EC50 (SARS-CoV-2-NLuc)?
A: Its EC50 is 1.96 µM.

Q: What about the “suppression of viral RNA levels” value [7] of the same compound?
A: The value was “up to 2 log”.

Q: And the “effect on viral binding to cells” value [8]?
A: Its value is “little or no effect”.

Q: What about the “inhibition when present at early entry time points” value (SARS2-Spp) of the same compound?
A: Its value is “potent inhibition”.

Q: And the “inhibition when present during binding” value (SARS2-Spp)?
A: The value was “minimal inhibition”.

Q: What about the “inhibition … (SmBit-LgBit)” value [1] of the same compound?
A: The value was “inhibited”.

Q: What about the “inhibition of fusion” value [2] of the same compound?
A: Its value is “showed inhibition”.

Q: What about the CC50 (in vitro [3]) of the same compound?
A: The CC50 was > 100 µM.

Q: What about the CC50 (in vitro [4]) of the same compound?
A: The CC50 was > 100 µM.

Q: What about the CC50 (in vitro [5]) of the same compound?
A: The CC50 was 32.7 µM.

Q: For `CCC(CC)COC(=O)[C@H](C)N[P@](=O)(OC[C@H]1O[C@@](C#N)(c2ccc3c(N)ncnn23)[C@H](O)[C@@H]1O)Oc1ccccc1` [remdesivir], which “suppression of viral RNA levels” value [7] is on record?
A: The value was “up to 3 log”.

Q: With Heparan sulfate as the compound, how does the “effect on viral binding to cells” value [8] read?
A: Its value is “significantly inhibited”.
